Laboratory results published in ChEMBL document CHEMBL3526000 (Drug Metab Dispos, 2012).

Tests used:
Type in all cases: ADME
Conditions in all cases: recombinant enzyme, 1 h
[1] = biological target: T1, UDP-glucuronosyltransferase 1A6 (Homo sapiens, UniProt P19224); assay: Drug metabolism assessed as recombinant human UGT1A6 assessed as N-glucuronidation at 100 uM incubated for 60 mins by LC-MS/MS analysis
T1 sequence (P19224 whole entry): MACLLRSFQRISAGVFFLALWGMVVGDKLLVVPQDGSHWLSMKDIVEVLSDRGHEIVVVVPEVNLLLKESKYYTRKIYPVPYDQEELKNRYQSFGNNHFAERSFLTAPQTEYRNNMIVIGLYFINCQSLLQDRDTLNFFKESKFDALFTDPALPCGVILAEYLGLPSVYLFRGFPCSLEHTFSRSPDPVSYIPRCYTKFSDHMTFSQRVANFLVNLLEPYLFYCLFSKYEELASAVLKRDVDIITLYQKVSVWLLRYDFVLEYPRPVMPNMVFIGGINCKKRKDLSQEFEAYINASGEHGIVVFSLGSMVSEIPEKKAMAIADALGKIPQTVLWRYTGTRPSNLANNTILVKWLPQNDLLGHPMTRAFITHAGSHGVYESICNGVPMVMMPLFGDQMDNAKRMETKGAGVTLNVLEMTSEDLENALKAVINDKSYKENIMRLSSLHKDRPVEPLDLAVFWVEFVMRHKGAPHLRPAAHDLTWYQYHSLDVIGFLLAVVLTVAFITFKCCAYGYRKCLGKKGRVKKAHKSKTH

[2] = biological target: T2, UDP-glucuronosyltransferase 1A7 (Homo sapiens, UniProt Q9HAW7); assay: Drug metabolism assessed as recombinant human UGT1A7 assessed as O-glucuronidation at 100 uM incubated for 60 mins by LC-MS/MS analysis
T2 sequence (Q9HAW7 whole entry): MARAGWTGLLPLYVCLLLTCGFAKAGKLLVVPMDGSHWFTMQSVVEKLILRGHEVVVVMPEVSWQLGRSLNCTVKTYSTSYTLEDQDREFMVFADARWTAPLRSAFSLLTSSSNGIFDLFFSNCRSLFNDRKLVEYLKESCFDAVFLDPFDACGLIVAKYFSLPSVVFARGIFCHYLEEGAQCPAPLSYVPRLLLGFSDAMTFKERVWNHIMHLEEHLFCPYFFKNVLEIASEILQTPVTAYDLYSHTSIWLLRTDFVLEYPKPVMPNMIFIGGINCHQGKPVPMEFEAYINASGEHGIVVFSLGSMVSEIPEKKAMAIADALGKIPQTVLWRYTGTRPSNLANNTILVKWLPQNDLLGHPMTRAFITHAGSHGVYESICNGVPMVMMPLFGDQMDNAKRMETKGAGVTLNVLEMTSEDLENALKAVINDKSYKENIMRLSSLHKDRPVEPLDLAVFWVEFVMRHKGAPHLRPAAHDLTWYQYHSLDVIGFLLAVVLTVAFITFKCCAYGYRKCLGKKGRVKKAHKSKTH

[3] = biological target: T3, UDP-glucuronosyltransferase 2B4 (Homo sapiens, UniProt P06133); assay: Drug metabolism assessed as recombinant human UGT2B4 assessed as O-glucuronidation at 100 uM incubated for 60 mins by LC-MS/MS analysis
T3 sequence (P06133 whole entry): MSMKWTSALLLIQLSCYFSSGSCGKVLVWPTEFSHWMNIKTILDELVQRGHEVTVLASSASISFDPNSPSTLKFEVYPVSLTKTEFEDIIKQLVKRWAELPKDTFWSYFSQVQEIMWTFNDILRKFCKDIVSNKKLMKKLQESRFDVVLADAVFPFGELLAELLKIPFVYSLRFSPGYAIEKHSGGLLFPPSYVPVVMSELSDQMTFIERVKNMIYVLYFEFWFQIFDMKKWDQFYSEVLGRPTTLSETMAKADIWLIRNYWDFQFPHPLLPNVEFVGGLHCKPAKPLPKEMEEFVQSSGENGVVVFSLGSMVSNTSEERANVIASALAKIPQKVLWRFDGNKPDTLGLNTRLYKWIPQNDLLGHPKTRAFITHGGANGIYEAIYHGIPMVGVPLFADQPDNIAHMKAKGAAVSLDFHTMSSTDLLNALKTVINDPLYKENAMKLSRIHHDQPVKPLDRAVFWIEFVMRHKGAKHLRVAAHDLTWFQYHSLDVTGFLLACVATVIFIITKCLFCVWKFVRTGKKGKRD

[4] = biological target: T1, UDP-glucuronosyltransferase 1A6; assay: Drug metabolism assessed as recombinant human UGT1A6 assessed as O-glucuronidation at 100 uM incubated for 60 mins by LC-MS/MS analysis
[5] = biological target: T4, UDP-glucuronosyltransferase 1A10 (Homo sapiens, UniProt Q9HAW8); assay: Drug metabolism assessed as recombinant human UGT1A10 assessed as N-glucuronidation at 100 uM incubated for 60 mins by LC-MS/MS analysis
T4 sequence (Q9HAW8 whole entry): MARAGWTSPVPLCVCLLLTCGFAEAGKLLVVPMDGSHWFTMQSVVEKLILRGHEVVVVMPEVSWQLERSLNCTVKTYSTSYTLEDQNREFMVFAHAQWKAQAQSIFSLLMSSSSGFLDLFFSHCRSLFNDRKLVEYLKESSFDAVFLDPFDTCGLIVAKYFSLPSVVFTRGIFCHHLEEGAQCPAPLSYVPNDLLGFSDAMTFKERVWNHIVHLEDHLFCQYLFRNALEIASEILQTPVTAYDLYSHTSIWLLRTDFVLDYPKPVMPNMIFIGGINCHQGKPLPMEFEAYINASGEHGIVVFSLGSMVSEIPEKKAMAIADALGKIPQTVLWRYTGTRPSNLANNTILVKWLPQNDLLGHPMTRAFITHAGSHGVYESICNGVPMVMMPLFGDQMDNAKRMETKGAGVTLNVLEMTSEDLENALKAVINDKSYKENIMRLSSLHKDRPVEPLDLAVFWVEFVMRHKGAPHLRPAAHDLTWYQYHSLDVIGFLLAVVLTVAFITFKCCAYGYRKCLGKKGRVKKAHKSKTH

[6] = biological target: T5, UDP-glucuronosyltransferase 1A8 (Homo sapiens, UniProt Q9HAW9); assay: Drug metabolism assessed as recombinant human UGT1A8 assessed as N-glucuronidation at 100 uM incubated for 60 mins by LC-MS/MS analysis
T5 sequence (Q9HAW9 whole entry): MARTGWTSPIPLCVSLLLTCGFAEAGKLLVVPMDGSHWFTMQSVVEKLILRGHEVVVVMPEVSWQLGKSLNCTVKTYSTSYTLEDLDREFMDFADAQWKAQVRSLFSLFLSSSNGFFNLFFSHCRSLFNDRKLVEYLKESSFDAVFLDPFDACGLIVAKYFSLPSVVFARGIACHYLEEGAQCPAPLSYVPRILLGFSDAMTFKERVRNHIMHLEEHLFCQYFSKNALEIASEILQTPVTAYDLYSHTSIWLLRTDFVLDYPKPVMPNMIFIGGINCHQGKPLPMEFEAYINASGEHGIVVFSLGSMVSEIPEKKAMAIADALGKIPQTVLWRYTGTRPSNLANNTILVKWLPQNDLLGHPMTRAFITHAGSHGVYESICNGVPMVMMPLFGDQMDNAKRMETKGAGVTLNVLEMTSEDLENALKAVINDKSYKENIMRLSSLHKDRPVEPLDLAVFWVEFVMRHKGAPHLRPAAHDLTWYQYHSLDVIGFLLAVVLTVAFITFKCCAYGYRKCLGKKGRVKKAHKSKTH

Measured: Drug metabolism

O=C(CCCN1CCC(O)(c2ccc(Cl)cc2)CC1)c1ccc(F)cc1 [HALOPERIDOL]
metabolite_not_detected: [1] | [2] | [3] | [4] | [5] | [6]
